According to patent publication US20120213697A1, “VERSATILE NANOPARTICULATE BIOMATERIAL FOR CONTROLLED DELIVERY AND/OR CONTAINMENT OF THERAPEUTIC AND DIAGNOSTIC MATERIAL” (Albert Einstein College of Medicine of Yeshiva University, priority 2009, published 2012):

Assay: MRI of mice after tail vein injection, maximum pixel intensity of the kidney
Type: in vivo, mouse
Method: FIG. 2A-2B. MRI of a mouse injected with Magnevist® (gadopentetate dimeglumine) (A) and a mouse injected with nanoparticles loaded with gadopentetate dimeglumine (B). The left images are pre-injection, center images are 4 hours post injection, and right images are 24 hours post injection. […] A study was conducted to address the efficacy with which CA-loaded particles can provide MRI images. MRI images of mice were acquired pre-injection. Subsequently mice were injected (via the tail vein) with one of the following: i) a suspension of empty nanoparticles; ii) a suspension of nanoparticles loaded with Magnevist® (gadopentetate dimeglumine, a commercial Gd based MRI contrast reagent); and iii) Magnevist® solution. Mice were then imaged immediately after injection of each of these materials and again at 2 hours, 4 hours and 24 hours post injection. Maximum pixel intensity of the kidney was measured (relative to the background) at each time point using ImageJ software.

Structure (SMILES): CNC[C@H](O)[C@@H](O)[C@H](O)[C@H](O)CO.CNC[C@H](O)[C@@H](O)[C@H](O)[C@H](O)CO.O=C([O-])CN(CCN(CC(=O)[O-])CC(=O)O)CCN(CC(=O)[O-])CC(=O)O.[Gd+3] [Magnevist®, gadopentetate dimeglumine]
- increase of maximum pixel intensity of the kidney (4 hours post-injection, tail vein, one mouse each): 32%
- signal intensity throughout the GI tract (24 hour time point): not observed
- MRI contrast (FIG. 2) (24 hours post-injection): returned to pre-injection levels
- change of maximum pixel intensity of the kidney (24 hours post-injection, additional increase over 4 hours): returned to pre-injection levels
